Assay results as given in US20150313228A1, “SYNERGISTIC HERBICIDAL COMBINATIONS AND METHODS OF USE” (priority 2012, published 2015).

Key:
velvetleaf = assay: Post-emergence application in velvetleaf under greenhouse conditions (Example 8); type: in vivo
Excerpt: (§1) The following testing protocol was employed to evaluate the post-emergence application of herbicides and herbicide combinations as described in the following examples unless otherwise specified. The weed species to be treated were planted in 3.5 inch pots containing redi-earth potting mix and grown under greenhouse conditions. When the weed species reached a height of about four inches, herbicide was applied at the specified application rate using a track sprayer with a flat even nozzle type, 9501E nozzle size, and spray pressure of 165 kPa. After the application of the herbicide(s), the pots were only sub-irrigated as needed. Throughout the test period, temperature was maintained from about 20° C. to about 30° C. and relative humidity was maintained at about 30%. The plants were rated visually and percentage of weed control was determined for each treatment at 15 to 21 days after herbicide application.
(§2) Post-emergence application of several herbicides and herbicide combinations was evaluated in velvetleaf under greenhouse conditions. The plants were rated visually and percentage of weed control was determined at 24 days after herbicide application. The herbicides and herbicide combinations evaluated are listed in Table 8-A below together with the corresponding percent control data. The data represent an average value (n=6).
The results of the analysis are reported below in Table 8-B (glyphosate+dicamba), Table 8-C(glyphosate+metribuzin), and Table 8-D (dicamba+metribuzin).

Palmer amaranth = assay: Post-emergence application in Palmer amaranth under greenhouse conditions (Example 7); type: in vivo; details: 24 days after application
Excerpt: as §1
as §2, with “Palmer amaranth” for “velvetleaf”, “7-A” for “8-A”
The results of the analysis are reported below in Table 7-B (glyphosate+dicamba), Table 7-C(glyphosate+metribuzin), and Table 7-D (dicamba+metribuzin).

**Q.** With `O=C(O)CNCP(=O)(O)O` [Glyphosate] as the compound, how does the “PERCENT CONTROL (ACTUAL)” value (velvetleaf; 560 g/ha, 24 days after application) read?
**A.** Its value is 81.0%.

**Q.** What about the “PERCENT CONTROL (ACTUAL)” value (velvetleaf; 1120 g/ha, 24 days after application) of the same compound?
**A.** The value was 100.0%.

**Q.** What about the “PERCENT CONTROL (ACTUAL)” value (velvetleaf; Table 8-C, velvetleaf, 24 days, dose 560 g/ha) of the same compound?
**A.** Its value is 81.0%.

**Q.** And the “PERCENT CONTROL (ACTUAL)” value (velvetleaf; Table 8-C, velvetleaf, 24 days, dose 1120 g/ha)?
**A.** The value was 100.0%.

**Q.** And the “PERCENT CONTROL” value (Palmer amaranth; 560 g/ha)?
**A.** The value was 20.0%.

**Q.** What about the “PERCENT CONTROL” value (Palmer amaranth; 1120 g/ha) of the same compound?
**A.** Its value is 50.0%.
